Results reported in patent US9840520B2, “Heterocyclic hydroxamic acids as protein deacetylase inhibitors and dual protein deacetylase-protein kinase inhibitors and methods of use thereof” (The Regents of the University of Colorado, A Body Corporate, priority 2014, dated 2017).

How the values were obtained:
HDAC-9 = HDAC-9 (Homo sapiens, UniProt Q9UKV0); test: HDAC Fluorescent Activity Assay (Fluor de Lys), HDAC-9
HDAC-6 = HDAC-6 (Homo sapiens, UniProt Q9UBN7); test: HDAC Fluorescent Activity Assay (Fluor de Lys), HDAC-6
HDAC-2 = HDAC-2 (Homo sapiens, UniProt Q92769); test: HDAC Fluorescent Activity Assay (Fluor de Lys), HDAC-2
Chain of HDAC-2 (Q92769 whole entry): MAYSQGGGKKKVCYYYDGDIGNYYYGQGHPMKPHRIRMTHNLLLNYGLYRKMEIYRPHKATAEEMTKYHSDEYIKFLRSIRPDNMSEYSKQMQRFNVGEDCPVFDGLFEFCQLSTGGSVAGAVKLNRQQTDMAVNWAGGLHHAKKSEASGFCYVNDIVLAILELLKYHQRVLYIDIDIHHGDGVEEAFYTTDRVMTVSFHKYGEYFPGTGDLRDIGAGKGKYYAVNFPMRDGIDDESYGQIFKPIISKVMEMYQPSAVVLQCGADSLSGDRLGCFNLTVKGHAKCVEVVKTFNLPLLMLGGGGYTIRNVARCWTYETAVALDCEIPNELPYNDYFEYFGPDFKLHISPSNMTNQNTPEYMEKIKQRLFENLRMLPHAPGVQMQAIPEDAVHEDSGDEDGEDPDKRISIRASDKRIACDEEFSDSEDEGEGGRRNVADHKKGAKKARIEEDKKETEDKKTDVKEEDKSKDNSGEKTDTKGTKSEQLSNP

HDAC-3 = HDAC-3 (Homo sapiens, UniProt O15379); test: HDAC Fluorescent Activity Assay (Fluor de Lys), HDAC-3
HDAC-10 = HDAC-10 (Homo sapiens, UniProt Q969S8); test: HDAC Fluorescent Activity Assay (Fluor de Lys), HDAC-10
HDAC-1 = HDAC-1 (Homo sapiens, UniProt Q13547); test: HDAC Fluorescent Activity Assay (Fluor de Lys), HDAC-1
HDAC-4 = HDAC-4 (Homo sapiens, UniProt P56524); test: HDAC Fluorescent Activity Assay (Fluor de Lys), HDAC-4
Chain of HDAC-4 (P56524 whole entry): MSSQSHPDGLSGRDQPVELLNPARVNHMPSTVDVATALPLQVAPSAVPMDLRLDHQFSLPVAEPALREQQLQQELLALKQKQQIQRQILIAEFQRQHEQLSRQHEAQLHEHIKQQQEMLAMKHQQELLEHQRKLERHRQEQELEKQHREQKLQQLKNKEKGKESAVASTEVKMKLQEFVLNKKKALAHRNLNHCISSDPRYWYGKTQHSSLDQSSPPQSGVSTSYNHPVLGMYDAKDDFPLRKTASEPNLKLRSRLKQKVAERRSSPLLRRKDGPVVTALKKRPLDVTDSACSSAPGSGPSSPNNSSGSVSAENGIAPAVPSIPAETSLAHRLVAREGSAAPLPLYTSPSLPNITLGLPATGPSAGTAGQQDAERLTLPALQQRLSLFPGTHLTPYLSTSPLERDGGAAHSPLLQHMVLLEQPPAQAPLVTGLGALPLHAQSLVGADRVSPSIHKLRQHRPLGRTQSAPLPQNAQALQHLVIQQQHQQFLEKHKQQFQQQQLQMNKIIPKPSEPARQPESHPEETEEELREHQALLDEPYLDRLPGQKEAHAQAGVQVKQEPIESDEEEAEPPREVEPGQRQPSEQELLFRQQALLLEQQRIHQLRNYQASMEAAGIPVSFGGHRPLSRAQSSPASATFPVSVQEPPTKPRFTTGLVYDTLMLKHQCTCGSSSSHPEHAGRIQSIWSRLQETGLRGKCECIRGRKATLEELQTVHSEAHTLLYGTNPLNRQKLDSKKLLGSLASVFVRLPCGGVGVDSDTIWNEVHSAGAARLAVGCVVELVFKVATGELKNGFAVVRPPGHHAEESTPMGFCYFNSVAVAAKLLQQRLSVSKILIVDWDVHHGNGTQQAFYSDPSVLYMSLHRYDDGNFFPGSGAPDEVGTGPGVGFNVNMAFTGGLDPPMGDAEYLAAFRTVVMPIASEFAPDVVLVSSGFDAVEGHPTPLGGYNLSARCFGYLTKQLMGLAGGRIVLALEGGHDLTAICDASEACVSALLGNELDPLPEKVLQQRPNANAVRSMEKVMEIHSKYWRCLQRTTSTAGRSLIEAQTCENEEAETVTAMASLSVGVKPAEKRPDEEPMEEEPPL

HDAC-5 = HDAC-5 (Homo sapiens, UniProt Q9UQL6); test: HDAC Fluorescent Activity Assay (Fluor de Lys), HDAC-5
Chain of HDAC-5 (Q9UQL6 whole entry): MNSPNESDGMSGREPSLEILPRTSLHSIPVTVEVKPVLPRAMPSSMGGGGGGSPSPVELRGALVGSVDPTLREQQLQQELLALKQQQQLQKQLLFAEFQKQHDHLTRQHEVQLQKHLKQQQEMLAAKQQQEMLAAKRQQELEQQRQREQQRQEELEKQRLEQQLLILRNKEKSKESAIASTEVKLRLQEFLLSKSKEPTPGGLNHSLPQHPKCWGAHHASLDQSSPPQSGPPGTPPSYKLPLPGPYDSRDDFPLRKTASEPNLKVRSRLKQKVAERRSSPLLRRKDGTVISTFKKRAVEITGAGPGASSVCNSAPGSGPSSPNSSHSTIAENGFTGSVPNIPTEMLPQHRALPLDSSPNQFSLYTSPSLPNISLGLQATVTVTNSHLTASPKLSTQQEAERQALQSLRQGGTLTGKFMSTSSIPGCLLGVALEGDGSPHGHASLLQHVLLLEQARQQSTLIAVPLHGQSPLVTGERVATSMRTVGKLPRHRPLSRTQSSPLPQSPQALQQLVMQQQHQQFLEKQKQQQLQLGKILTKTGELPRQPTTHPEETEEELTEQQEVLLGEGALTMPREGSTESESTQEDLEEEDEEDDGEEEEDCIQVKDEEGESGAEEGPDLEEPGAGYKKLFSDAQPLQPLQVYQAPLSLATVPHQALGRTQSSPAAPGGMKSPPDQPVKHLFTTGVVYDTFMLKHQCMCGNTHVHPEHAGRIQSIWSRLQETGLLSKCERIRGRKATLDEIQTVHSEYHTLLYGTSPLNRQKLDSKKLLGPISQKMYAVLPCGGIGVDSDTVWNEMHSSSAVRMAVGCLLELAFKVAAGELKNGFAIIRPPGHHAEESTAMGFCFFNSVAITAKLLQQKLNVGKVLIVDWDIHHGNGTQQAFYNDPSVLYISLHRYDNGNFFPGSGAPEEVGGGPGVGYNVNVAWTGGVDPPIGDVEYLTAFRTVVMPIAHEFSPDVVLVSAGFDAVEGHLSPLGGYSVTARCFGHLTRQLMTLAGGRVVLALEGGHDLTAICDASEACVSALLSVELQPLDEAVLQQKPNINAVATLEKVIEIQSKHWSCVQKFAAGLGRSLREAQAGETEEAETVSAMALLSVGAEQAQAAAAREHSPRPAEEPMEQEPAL

HDAC-7 = HDAC-7 (Homo sapiens, UniProt Q8WUI4); test: HDAC Fluorescent Activity Assay (Fluor de Lys), HDAC-7
Chain of HDAC-7 (Q8WUI4 whole entry): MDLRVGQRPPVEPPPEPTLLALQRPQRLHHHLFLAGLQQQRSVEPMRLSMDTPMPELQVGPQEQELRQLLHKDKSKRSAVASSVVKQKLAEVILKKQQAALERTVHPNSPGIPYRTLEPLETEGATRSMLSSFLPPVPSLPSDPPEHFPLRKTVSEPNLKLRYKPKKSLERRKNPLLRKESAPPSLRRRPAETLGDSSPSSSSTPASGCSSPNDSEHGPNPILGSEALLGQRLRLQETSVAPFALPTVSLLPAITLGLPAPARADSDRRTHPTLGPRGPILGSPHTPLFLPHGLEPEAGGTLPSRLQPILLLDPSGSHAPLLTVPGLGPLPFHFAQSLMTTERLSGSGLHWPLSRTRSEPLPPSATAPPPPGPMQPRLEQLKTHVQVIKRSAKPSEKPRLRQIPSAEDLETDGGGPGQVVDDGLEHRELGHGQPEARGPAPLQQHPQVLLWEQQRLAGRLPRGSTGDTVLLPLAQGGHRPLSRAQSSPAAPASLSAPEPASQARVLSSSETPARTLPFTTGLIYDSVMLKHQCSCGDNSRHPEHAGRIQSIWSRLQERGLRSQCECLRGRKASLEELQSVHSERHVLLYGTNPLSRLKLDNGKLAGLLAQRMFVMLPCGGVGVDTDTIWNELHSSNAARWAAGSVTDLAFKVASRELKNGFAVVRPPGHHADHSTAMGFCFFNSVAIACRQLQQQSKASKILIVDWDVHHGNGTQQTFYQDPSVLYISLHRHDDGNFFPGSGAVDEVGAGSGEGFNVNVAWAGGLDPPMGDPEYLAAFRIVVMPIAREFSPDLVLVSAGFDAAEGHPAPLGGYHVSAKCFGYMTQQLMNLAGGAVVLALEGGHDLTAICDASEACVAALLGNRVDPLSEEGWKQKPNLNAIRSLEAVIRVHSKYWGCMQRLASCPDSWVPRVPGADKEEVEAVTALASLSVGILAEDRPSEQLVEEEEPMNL

HDAC-11 = HDAC-11 (Homo sapiens, UniProt Q96DB2); test: HDAC Fluorescent Activity Assay (Fluor de Lys), HDAC-11
Chain of HDAC-11 (Q96DB2 whole entry): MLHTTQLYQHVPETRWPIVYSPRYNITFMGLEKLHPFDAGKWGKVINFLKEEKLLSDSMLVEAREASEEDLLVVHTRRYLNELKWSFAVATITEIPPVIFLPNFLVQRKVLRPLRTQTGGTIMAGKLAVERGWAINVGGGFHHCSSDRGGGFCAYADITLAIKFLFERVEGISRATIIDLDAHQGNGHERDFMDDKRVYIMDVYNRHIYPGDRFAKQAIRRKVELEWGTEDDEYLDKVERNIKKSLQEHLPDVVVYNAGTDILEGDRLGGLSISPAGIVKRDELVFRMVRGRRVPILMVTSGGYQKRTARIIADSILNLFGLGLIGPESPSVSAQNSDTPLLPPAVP

HDAC-8 = HDAC-8 (Homo sapiens, UniProt Q9BY41); test: HDAC Fluorescent Activity Assay (Fluor de Lys), HDAC-8
ovarian xenograft = settings: cited from earlier work
TTK/Mps1 = TTK/Mps1 (Homo sapiens, UniProt P33981); settings: TTK/Mps1 inhibitors of the literature; cited from earlier work
Chain of TTK/Mps1 (P33981 whole entry): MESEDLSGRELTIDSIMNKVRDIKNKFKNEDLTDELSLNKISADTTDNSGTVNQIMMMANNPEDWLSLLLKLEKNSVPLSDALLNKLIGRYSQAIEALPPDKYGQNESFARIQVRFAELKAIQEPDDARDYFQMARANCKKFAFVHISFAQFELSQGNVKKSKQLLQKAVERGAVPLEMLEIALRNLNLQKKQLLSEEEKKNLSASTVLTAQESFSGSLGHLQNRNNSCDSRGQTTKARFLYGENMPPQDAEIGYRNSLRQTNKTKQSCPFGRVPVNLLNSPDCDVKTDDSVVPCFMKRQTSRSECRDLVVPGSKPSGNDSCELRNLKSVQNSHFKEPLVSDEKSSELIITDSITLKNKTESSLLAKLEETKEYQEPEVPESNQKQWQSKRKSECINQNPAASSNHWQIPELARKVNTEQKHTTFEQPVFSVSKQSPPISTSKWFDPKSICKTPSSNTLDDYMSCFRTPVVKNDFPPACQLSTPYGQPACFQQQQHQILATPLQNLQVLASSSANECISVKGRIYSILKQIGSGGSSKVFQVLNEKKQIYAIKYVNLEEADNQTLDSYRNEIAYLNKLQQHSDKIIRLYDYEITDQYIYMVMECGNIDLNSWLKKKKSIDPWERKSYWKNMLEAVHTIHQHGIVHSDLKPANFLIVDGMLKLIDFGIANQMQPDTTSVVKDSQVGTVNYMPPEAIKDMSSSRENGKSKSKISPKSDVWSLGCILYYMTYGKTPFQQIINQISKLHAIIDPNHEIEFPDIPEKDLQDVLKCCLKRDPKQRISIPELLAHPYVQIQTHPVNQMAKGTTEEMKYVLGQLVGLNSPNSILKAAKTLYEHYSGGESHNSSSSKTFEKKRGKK

Cn1cnc2c(NC3CCCCC3)nc(Nc3ccc(OCCCCCC(=O)NO)cc3)nc21 [Example 9, 6-(4-(6-(cyclohexylamino)-9-methyl-9H-purin-2-ylamino)phenoxy)-N-hydroxyhexanamide]
IC50 (HDAC-9): > 100000 nM
IC50 (HDAC-6): 9.8 nM
IC50 (HDAC-2): 1640 nM
IC50 (HDAC-3): 1180 nM
IC50 (HDAC-10): 284 nM
IC50 (HDAC-1): 422 nM
IC50 (HDAC-4): > 100000 nM
IC50 (HDAC-5): > 100000 nM
IC50 (HDAC-7): > 100000 nM
IC50 (HDAC-11): 159 nM
IC50 (HDAC-8): 225 nM

CCc1cccc(CC)c1NC(=O)c1nn(C)c2c1CCc1cnc(Nc3ccc(C(=O)NC4CCN(C)CC4)cc3OC(F)(F)F)nc1-2 [NMS-P715]
efficacy in an ovarian xenograft (ovarian xenograft): promising efficacies

Oc1c2ccccc2c2c3c(cccc13)N=N2 [SP600125]
IC50 (TTK/Mps1): 250 nM
